# Measured values from patent publication US8536202B2, “Triazole-substituted anthranilamides as pesticides” (Bayer Cropscience AG, priority 2010, dated 2013).
# Where two headings read alike, the source gives them in different places.
# Assays:
# [1] = test system: larvae of the mustard beetle (Phaedon cochleariae); experiment: Phaedon test (PHAECO spray treatment); type: in vivo; details: 168 h, 100 g/ha, after 7 days, read-out: activity in %
# Procedure, shortened: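 Mortality of mustard beetle larvae, expressed as percent killed (100% all, 0% none), assessed 7 days after spraying. Spray liquor made from compound in acetone plus dimethylformamide with alkylaryl polyglycol ether, diluted in emulsifier-containing water to the desired concentration.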
# [2] = log P determination by HPLC on reversed-phase columns (EEC Directive 79/831 Annex V.A8); type: physicochemical; details: pH 2.7
# Procedure, shortened: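 Calibration used unbranched alkan-2-ones of 3 to 16 carbons with known log P, values interpolated linearly from retention times between neighbouring standards. Acidic-range LC-MS run at pH 2.7, eluents aqueous and acetonitrile formic acid 0.1%, linear gradient 10% to 95% acetonitrile.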
# [3] = test system: caterpillars of the armyworm (Spodoptera frugiperda); experiment: Spodoptera frugiperda test (SPODFR spray treatment); type: in vivo; details: 168 h, after 7 days; for pest or weed control at 100 g/ha: read-out: activity in %
# Procedure, shortened: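 Percent caterpillar mortality read 7 days after infestation (0% none killed, 100% all killed). Treatment was a spray of the acetone/DMF/emulsifier formulation, water-diluted to test concentration, onto Zea mays leaf discs, allowed to dry before larvae were added.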
# [4] = reversed-phase C18 HPLC column, HPLC on reversed-phase columns (C 18), EEC Directive 79/831 Annex V.A8, read-out: logP
SMILES,pest or weed control at 100 g/ha [1] [%],chromatographic logP [2],pest or weed control at 100 g/ha [3] [%],"chromatographic logP [2, 4]",pest or weed control at 20 g/ha ([3]; 20 g/ha) [%]
Cc1cc(I)cc(C(=O)NC2CC2)c1NC(=O)c1cc(Cn2ncc(C(F)(F)F)n2)nn1-c1ncccc1Cl [Example 159],100,3.45,100,,
CCNC(=O)c1cc(I)cc(C)c1NC(=O)c1cc(Cn2ncc(C(F)(F)F)n2)nn1-c1ncccc1Cl [Example 160],100,3.5,100,,
Cc1cc(I)cc(C(=O)NC(C)C)c1NC(=O)c1cc(Cn2ncc(C(F)(F)F)n2)nn1-c1ncccc1Cl [Example 161],100,3.73,100,,
Cc1cc(I)cc(C(=O)NCC2CC2)c1NC(=O)c1cc(Cn2ncc(C(F)(F)F)n2)nn1-c1ncccc1Cl [Example 163],100,3.8,100,,
CNC(=O)c1cc(F)cc(C)c1NC(=O)c1cc(Cn2ncc(C(F)(F)F)n2)nn1-c1ncccc1Cl [Example 167],100,2.63,100,,
Cc1cc(F)cc(C(=O)NC(C)C2CC2)c1NC(=O)c1cc(Cn2ncc(C(F)(F)F)n2)nn1-c1ncccc1Cl (stereo not drawn) [Example 168],100,3.36,100,,
Cc1cc(F)cc(C(=O)NC2CC2)c1NC(=O)c1cc(Cn2ncc(C(F)(F)F)n2)nn1-c1ncccc1Cl [Example 169],100,2.86,100,,
Cc1cc(Br)cc(C(=O)NC(C)(C)C)c1NC(=O)c1cc(Cn2ncc(C(F)(F)F)n2)nn1-c1ncccc1Cl [Example 176],100,4.65,100,,
CSC[C@H](C)NC(=O)c1cc(C#N)cc(C)c1NC(=O)c1cc(Cn2cc(C(F)(F)F)nn2)nn1-c1ncccc1Cl [Example 183],100,2.95,100,,
Cc1cc(Cl)cc(C(=O)NC(C)C)c1NC(=O)c1cc(Cn2cc(C(F)(F)F)nn2)nn1-c1ncccc1Cl [Example 190],100,3.06,100,,
Cc1cc(Cl)cc(C(=O)NCC2CC2)c1NC(=O)c1cc(Cn2cc(C(F)(F)F)nn2)nn1-c1ncccc1Cl [Example 195],100,3.22,100,,
CC(NC(=O)c1cc(Cl)cc(Cl)c1NC(=O)c1cc(Cn2cc(C(F)(F)F)nn2)nn1-c1ncccc1Cl)C1CC1 (stereo not drawn) [Example 198],100,3.38,100,,
CSC[C@H](C)NC(=O)c1cc(Cl)cc(Cl)c1NC(=O)c1cc(Cn2cc(C(F)(F)F)nn2)nn1-c1ncccc1Cl [Example 202],100,3.28,100,,
O=C(NCC1CC1)c1cc(Cl)cc(Cl)c1NC(=O)c1cc(Cn2cc(C(F)(F)F)nn2)nn1-c1ncccc1Cl [Example 204],100,3.14,100,,
N#CCNC(=O)c1cc(Cl)cc(Cl)c1NC(=O)c1cc(Cn2cc(C(F)(F)F)nn2)nn1-c1ncccc1Cl [Example 205],100,2.63,100,,
CNC(=O)c1cc(I)cc(C)c1NC(=O)c1cc(Cn2cc(C(F)(F)F)nn2)nn1-c1ncccc1Cl [Example 206],100,2.86,100,,
Cc1cc(I)cc(C(=O)NC(C)C2CC2)c1NC(=O)c1cc(Cn2cc(C(F)(F)F)nn2)nn1-c1ncccc1Cl (stereo not drawn) [Example 207],100,3.69,100,,
Cc1cc(I)cc(C(=O)NC2CC2)c1NC(=O)c1cc(Cn2cc(C(F)(F)F)nn2)nn1-c1ncccc1Cl [Example 208],100,3.15,100,,
CCNC(=O)c1cc(I)cc(C)c1NC(=O)c1cc(Cn2cc(C(F)(F)F)nn2)nn1-c1ncccc1Cl [Example 209],100,3.04,100,,
Cc1cc(I)cc(C(=O)NC(C)C)c1NC(=O)c1cc(Cn2cc(C(F)(F)F)nn2)nn1-c1ncccc1Cl [Example 210],100,3.38,100,,

SMILES,pest or weed control at 100 g/ha [1] [%],chromatographic logP [2],pest or weed control at 100 g/ha [3] [%],"chromatographic logP [2, 4]",pest or weed control at 20 g/ha ([3]; 20 g/ha) [%]
Cc1cc(I)cc(C(=O)NC(C)(C)C)c1NC(=O)c1cc(Cn2cc(C(F)(F)F)nn2)nn1-c1ncccc1Cl [Example 211],100,3.72,100,,
Cc1cc(I)cc(C(=O)NCC2CC2)c1NC(=O)c1cc(Cn2cc(C(F)(F)F)nn2)nn1-c1ncccc1Cl [Example 214],100,3.45,100,,
Cc1cc(C#N)cc(C(=O)NC(C)C)c1NC(=O)c1cc(Cn2nncc2C(F)(F)F)nn1-c1ncccc1Cl [Example 216],100,2.63,100,,
Cc1cc(Cl)cc(C(=O)NC(C)C2CC2)c1NC(=O)c1cc(Cn2cc(C(F)(C(F)(F)F)C(F)(F)F)nn2)nn1-c1ncccc1Cl (stereo not drawn) [Example 226],100,,,4.15,100
Cc1cc(Cl)cc(C(=O)NC(C)C)c1NC(=O)c1cc(Cn2cc(C(F)(C(F)(F)F)C(F)(F)F)nn2)nn1-c1ncccc1Cl [Example 227],100,3.85,100,,
Cc1cc(Cl)cc(C(=O)NCC2CC2)c1NC(=O)c1cc(Cn2cc(C(F)(C(F)(F)F)C(F)(F)F)nn2)nn1-c1ncccc1Cl [Example 229],100,,100,3.91,
CNC(=O)c1cc(I)cc(C)c1NC(=O)c1cc(Cn2cc(C(F)(C(F)(F)F)C(F)(F)F)nn2)nn1-c1ncccc1Cl [Example 233],100,3.59,100,,
Cc1cc(I)cc(C(=O)NC(C)C2CC2)c1NC(=O)c1cc(Cn2cc(C(F)(C(F)(F)F)C(F)(F)F)nn2)nn1-c1ncccc1Cl (stereo not drawn) [Example 234],100,,100,4.38,
Cc1cc(I)cc(C(=O)NC(C)C)c1NC(=O)c1cc(Cn2cc(C(F)(C(F)(F)F)C(F)(F)F)nn2)nn1-c1ncccc1Cl [Example 235],100,4.09,100,,
Cc1cc(I)cc(C(=O)NC(C)(C)C)c1NC(=O)c1cc(Cn2cc(C(F)(C(F)(F)F)C(F)(F)F)nn2)nn1-c1ncccc1Cl [Example 236],100,,100,4.43,
Cc1cc(I)cc(C(=O)NCC2CC2)c1NC(=O)c1cc(Cn2cc(C(F)(C(F)(F)F)C(F)(F)F)nn2)nn1-c1ncccc1Cl [Example 237],100,,100,4.14,
Cc1cc(I)cc(C(=O)NC2CC2)c1NC(=O)c1cc(Cn2cc(C(F)(C(F)(F)F)C(F)(F)F)nn2)nn1-c1ncccc1Cl [Example 240],100,3.83,100,,
CC(NC(=O)c1cc(Cl)cc(Cl)c1NC(=O)c1cc(Cn2cc(C(F)(C(F)(F)F)C(F)(F)F)nn2)nn1-c1ncccc1Cl)C1CC1 (stereo not drawn) [Example 242],100,,100,4.08,
CC(C)NC(=O)c1cc(Cl)cc(Cl)c1NC(=O)c1cc(Cn2cc(C(F)(C(F)(F)F)C(F)(F)F)nn2)nn1-c1ncccc1Cl [Example 243],100,3.79,100,,
CC(C)(C)NC(=O)c1cc(Cl)cc(Cl)c1NC(=O)c1cc(Cn2cc(C(F)(C(F)(F)F)C(F)(F)F)nn2)nn1-c1ncccc1Cl [Example 244],100,,100,4.13,
O=C(NCC1CC1)c1cc(Cl)cc(Cl)c1NC(=O)c1cc(Cn2cc(C(F)(C(F)(F)F)C(F)(F)F)nn2)nn1-c1ncccc1Cl [Example 245],100,,100,3.84,
O=C(NC1CC1)c1cc(Cl)cc(Cl)c1NC(=O)c1cc(Cn2cc(C(F)(C(F)(F)F)C(F)(F)F)nn2)nn1-c1ncccc1Cl [Example 248],100,3.56,100,,
Cc1cc(C#N)cc(C(=O)NC(C)C2CC2)c1NC(=O)c1cc(Cn2ncc(C(F)(C(F)(F)F)C(F)(F)F)n2)nn1-c1ncccc1Cl (stereo not drawn) [Example 250],100,,100,4.2,
Cc1cc(C#N)cc(C(=O)NC(C)C)c1NC(=O)c1cc(Cn2ncc(C(F)(C(F)(F)F)C(F)(F)F)n2)nn1-c1ncccc1Cl [Example 251],100,,100,3.89,
